Laboratory results from PMC3894558, “Chemical signatures and new drug targets for gametocytocidal drug development” (Scientific Reports, 2014).
Like-named read-outs stand apart in the source and are kept apart here.

Tested on: P. falciparum 3D7 gametocytes
Experiment: alamarBlue gametocyte viability assay, strain 3D7
Assay type: cell-based, Plasmodium falciparum
Details: Malaria Box; for Max Resp: DMSO set at 0%, 100 nM epoxomicin set at -100%; for Curve Class / IC50: stages III-V 3D7 gametocytes; for IC50: 11 concentrations, 1:3 dilution; call rule not given here

## CCN(CC)CCn1c(=N)n(CC(O)c2ccc(Cl)c(Cl)c2)c2ccccc21.Cl (stereo not drawn) [MMV000248]
  Max Resp: -99%
  Curve Class: -1.1
read-out: IC50
  IC50: 1.48 µM

## CCOc1ccc(Nc2c3ccccc3nc3ccccc23)cc1.Cl [MMV000304]
  Max Resp: -95%
  Curve Class: -2.1
read-out: IC50
  IC50: 16.6 µM

## Cc1ccc2nc(C)cc(Nc3cccc(C(F)(F)F)c3)c2c1.Cl [MMV000326]
  Max Resp: -52%
  Curve Class: -2.2
  IC50: Inactive

## Br.CCn1c2c(c(=N)c3c1CCC3)CCCC2 [MMV000340]
  Max Resp: -49%
  Curve Class: -2.2
  IC50: Inactive

## O=C(O)C(=O)O.Oc1ccc(Br)cc1CN1CCN(Cc2cccc(F)c2)CC1 [MMV000356]
  Max Resp: -72%
  Curve Class: -1.2
read-out: IC50
  IC50: 2.64 µM

## CCOc1ccc2c(c1)CN(Cc1ccc(Cl)cc1)CO2 [MMV000443]
  Max Resp: -54%
  Curve Class: -1.2
read-out: IC50
  IC50: 1.32 µM

## CCCCCn1c(=N)n(CC(O)COc2cccc(C)c2)c2ccccc21.Cl (stereo not drawn) [MMV000444]
  Max Resp: -107%
  Curve Class: -1.1
read-out: IC50
  IC50: 8.33 µM

## CCCCCCn1c(=N)n(CC(O)COc2cccc(C)c2)c2ccccc21.Cl (stereo not drawn) [MMV000445]
  Max Resp: -110%
  Curve Class: -1.1
read-out: IC50
  IC50: 7.43 µM

## CN(C)CCCNc1c2ccccc2nc2ccccc12 [MMV000448]
  Max Resp: -105%
  Curve Class: -1.1
read-out: IC50
  IC50: 1.87 µM

## CCOc1cc2c(cc1OCC)C(c1cc(Cl)ccc1O)NCC2 (stereo not drawn) [MMV000478]
  Max Resp: -76%
  Curve Class: -1.2
read-out: IC50
  IC50: 4.18 µM

## CCOc1cc2c(cc1OCC)C(c1cc(Cl)c(O)c(OCC)c1)NCC2 (stereo not drawn) [MMV000481]
  Max Resp: -81%
  Curve Class: -1.1
read-out: IC50
  IC50: 5.26 µM

## CCOc1cc2c(cc1OCC)C(c1cc(C)c(O)c(C)c1)NCC2.Cl (stereo not drawn) [MMV000483]
  Max Resp: -82%
  Curve Class: -1.1
read-out: IC50
  IC50: 5.26 µM

## CCN(CC)c1cc(C)c2cc(NC(=O)c3cccc(OC)c3)ccc2n1 [MMV000498]
  Max Resp: -20%
  Curve Class: 4
  IC50: Inactive

## CCCN(CCC)CCCNC(=O)c1cc2c(-c3ccc(OC)c(OC)c3)nn(C)c2s1 [MMV000561]
  Max Resp: -52%
  Curve Class: -2.2
  IC50: Inactive

## CCc1ccc(Nc2cc(C)c3ccc(O)cc3n2)cc1.Cl [MMV000570]
  Max Resp: -29%
  Curve Class: -1.2
read-out: IC50
  IC50: 0.469 µM

## COc1ccc(-c2cc(=O)oc3c4c(ccc23)OCN(Cc2ccc(F)cc2)C4)cc1 [MMV000604]
  Max Resp: -55%
  Curve Class: -2.2
read-out: IC50
  IC50: 7.43 µM

## COc1ccc(C(O)(CCC(C)C)C(CN2CCOCC2)c2ccc(Cl)cc2)cc1.Cl (stereo not drawn) [MMV000617]
  Max Resp: -31%
  Curve Class: -2.4
  IC50: Inactive

## CCCCC(O)(c1ccc(Cl)cc1)C(CN1CCOCC1)c1ccc(Cl)cc1.Cl (stereo not drawn) [MMV000619]
  Max Resp: -51%
  Curve Class: -2.2
  IC50: Inactive

## CC(O)(c1ccc(Cl)cc1)C(CN1CCCCC1)c1ccccc1.Cl (stereo not drawn) [MMV000620]
  Max Resp: -78%
  Curve Class: -2.2
read-out: IC50
  IC50: 9.35 µM

## CCCCCCC(O)(c1ccc(F)cc1)C(CN1CCOCC1)c1ccccc1.Cl (stereo not drawn) [MMV000621]
  Max Resp: -59%
  Curve Class: -2.2
read-out: IC50
  IC50: 37.2 µM

## CC1CCCCN1CCCNC(=O)c1ccc2c(c1)sc1nc(-c3ccc(F)cc3)cn12 (stereo not drawn) [MMV000634]
  Max Resp: -84%
  Curve Class: -2.1
read-out: IC50
  IC50: 10.5 µM

## COc1ccc(NC(=O)C2c3ccccc3C(=O)N(CC(C)C)C2c2cccs2)cc1Cl (stereo not drawn) [MMV000642]
  Max Resp: -75%
  Curve Class: -2.2
read-out: IC50
  IC50: 9.35 µM

## COc1ccccc1CNC(=O)C1c2ccccc2C(=O)N(CC(C)C)C1c1cccs1 (stereo not drawn) [MMV000648]
  Max Resp: -46%
  Curve Class: -2.2
  IC50: Inactive

## CCOc1ccccc1CNC(=O)C1c2ccccc2C(=O)N(CC(C)C)C1c1cccs1 (stereo not drawn) [MMV000653]
  Max Resp: -49%
  Curve Class: -2.2
  IC50: Inactive

## COc1ccc(NC(=O)C2c3ccccc3C(=O)N(CC(C)C)C2c2cccs2)cc1 (stereo not drawn) [MMV000662]
  Max Resp: -81%
  Curve Class: -1.1
read-out: IC50
  IC50: 4.18 µM

## Cc1ccc(C2CC(C(F)(F)F)n3nc(C(=O)N4CCN(C(c5ccccc5)c5ccccc5)CC4)cc3N2)cc1 (stereo not drawn) [MMV000699]
  Max Resp: -70%
  Curve Class: -2.2
read-out: IC50
  IC50: 29.6 µM

## CCOC(=O)c1cnc2ccc(OC)cc2c1Nc1ccc(N2CCN(C)CC2)cc1 [MMV000704]
  Max Resp: -69%
  Curve Class: -2.2
read-out: IC50
  IC50: 23.5 µM

## Cc1ccnc(NC(c2cccc(OCc3ccccc3)c2)c2ccc3cccnc3c2O)c1 (stereo not drawn) [MMV000720]
  Max Resp: -112%
  Curve Class: -2.1
read-out: IC50
  IC50: 13.2 µM

## Oc1ccc(-c2nc(-c3ccc4oc5ccc(-c6[nH]c(-c7ccc(O)cc7)nc6-c6ccccc6)cc5c4c3)c(-c3ccccc3)[nH]2)cc1 [MMV000753]
  Max Resp: -68%
  Curve Class: -2.2
read-out: IC50
  IC50: 18.7 µM

## Oc1c(CN2CCN(c3ccccc3F)CC2)cc(Br)c2cccnc12 [MMV000760]
  Max Resp: -91%
  Curve Class: -1.1
read-out: IC50
  IC50: 3.72 µM

## CCCOCc1cc(CN2CCN(c3cccc(Cl)c3)CC2)c(O)c2ncccc12 [MMV000787]
  Max Resp: -98%
  Curve Class: -1.1
read-out: IC50
  IC50: 8.33 µM

## CC(C)OCc1cc(CN2CCN(c3cccc(Cl)c3)CC2)c(O)c2ncccc12 [MMV000788]
  Max Resp: -97%
  Curve Class: -1.1
read-out: IC50
  IC50: 8.33 µM

## Cl.OC(CNCc1ccccc1)Cn1c2ccccc2c2ccccc21 (stereo not drawn) [MMV000839]
  Max Resp: -97%
  Curve Class: -1.1
read-out: IC50
  IC50: 8.33 µM

## OC(CNC1CCCC1)Cn1c2ccccc2c2ccccc21 (stereo not drawn) [MMV000848]
  Max Resp: -93%
  Curve Class: -1.1
read-out: IC50
  IC50: 2.09 µM

## Cc1ccc(NC(=O)Nc2cccc(Cl)c2)cc1F [MMV000911]
  Max Resp: -36%
  Curve Class: -2.2
  IC50: Inactive

## COc1ccc2c(c1OC)C(=O)N1c3ccccc3N=C(c3ccc(C)cc3)CC21 (stereo not drawn) [MMV000917]
  Max Resp: -63%
  Curve Class: -2.2
read-out: IC50
  IC50: 29.6 µM

## COc1ccc(Nc2nc(NCc3ccccc3)c3ccccc3n2)cc1 [MMV000963]
  Max Resp: -86%
  Curve Class: -2.1
read-out: IC50
  IC50: 9.35 µM

## O=C1CC(O)(C(F)(F)C(F)(F)F)Oc2ccccc21 (stereo not drawn) [MMV000972]
  Max Resp: -32%
  Curve Class: -1.4
read-out: IC50
  IC50: 0.743 µM

## CN1CCN(c2nc(Nc3ccc(O)cc3)nc3ccccc23)CC1.Cl [MMV000986]
  Max Resp: -93%
  Curve Class: -1.1
read-out: IC50
  IC50: 6.62 µM

## Cc1ccc(Nc2nc(NCCO)c3ccccc3n2)cc1C [MMV001038]
  Max Resp: -71%
  Curve Class: -1.2
read-out: IC50
  IC50: 3.32 µM

## OCCNc1nc(Nc2ccc(Cl)c(Cl)c2)nc2ccccc12 [MMV001041]
  Max Resp: -63%
  Curve Class: -2.2
read-out: IC50
  IC50: 14.8 µM

## CC(C)c1ccc(CNCC(O)c2ccccc2)cc1.Cl (stereo not drawn) [MMV001049]
  Max Resp: -76%
  Curve Class: -1.2
read-out: IC50
  IC50: 2.35 µM

## CCOc1cccc2sc(N(Cc3cccnc3)C(=O)C3CCCCC3)nc12 [MMV001230]
  Max Resp: -26%
  Curve Class: 4
  IC50: Inactive

## COc1ccc2sc(N(Cc3cccnc3)C(=O)c3ccc(C#N)cc3)nc2c1 [MMV001239]
  Max Resp: -40%
  Curve Class: -2.2
  IC50: Inactive

## COc1ccc(C)c2sc(N(Cc3cccnc3)C(=O)c3ccc(C#N)cc3)nc12 [MMV001241]
  Max Resp: -48%
  Curve Class: -2.2
  IC50: Inactive

## CSc1ccccc1C(=O)Nc1nc(-c2ccccn2)cs1 [MMV001246]
  Max Resp: -72%
  Curve Class: -2.2
read-out: IC50
  IC50: 11.8 µM

## CCCCc1ccc(NS(=O)(=O)c2cc3c4c(c2)CCN4C(=O)CC3)cc1 [MMV001255]
  Max Resp: 2%
  Curve Class: 4
  IC50: Inactive

## O=C(Nc1ccc(Br)cc1)Nc1cccc(Cl)c1 [MMV001318]
  Max Resp: -20%
  Curve Class: 4
  IC50: Inactive

## CC1CC(C)CN(C(=O)c2ccc(Cl)cc2Cl)C1 (stereo not drawn) [MMV001344]
  Max Resp: -13%
  Curve Class: 4
  IC50: Inactive

## CCN(CC)CCNc1ccnc2cc(Cl)ccc12 [MMV006087]
  Max Resp: -66%
  Curve Class: -1.2
read-out: IC50
  IC50: 0.372 µM

## c1ccc(CNc2nc(Nc3ccccc3)nc3ccccc23)cc1 [MMV006169]
  Max Resp: -80%
  Curve Class: -2.2
read-out: IC50
  IC50: 11.8 µM

## CN1CCN(c2ccc(Nc3c4ccccc4nc4ccccc34)cc2)CC1 [MMV006172]
  Max Resp: -98%
  Curve Class: -1.1
read-out: IC50
  IC50: 1.48 µM

## O=C(NCc1ccco1)C1CCN(S(=O)(=O)c2ccc(Cl)cc2)CC1 [MMV006188]
  Max Resp: 19%
  Curve Class: 4
  IC50: Inactive

## Cc1cc(NCCN2CCCCC2)c2ccc3ccccc3c2n1 [MMV006203]
  Max Resp: -94%
  Curve Class: -1.1
read-out: IC50
  IC50: 8.33 µM

## CCOC(=O)c1cnc2c(C)cccc2c1Nc1ccc(C(C)=O)cc1 [MMV006250]
  Max Resp: 3%
  Curve Class: 4
  IC50: Inactive

## CCc1c(C)c(=N)c2ccccc2n1C.I [MMV006278]
  Max Resp: -52%
  Curve Class: -2.2
  IC50: Inactive

## CN(C)c1ccc(C=Cc2nc(=O)c3ccccc3o2)cc1 [MMV006309]
  Max Resp: 2%
  Curve Class: 4
  IC50: Inactive

## Cc1cc(Nc2cccc(F)c2)nc(NCc2ccccc2)n1 [MMV006319]
  Max Resp: -60%
  Curve Class: -2.2
read-out: IC50
  IC50: 29.6 µM

## O=C1c2ccccc2C2=Nc3ccccc3SC(c3cccc(F)c3)C12 (stereo not drawn) [MMV006389]
  Max Resp: 8%
  Curve Class: 4
  IC50: Inactive
